Experimental data reported in PubChem BioAssay AID248 (DTP/NCI, 2004).
Several values for one entry are separate records, joined by “and”; a condition that tells them apart may be missing. Identical values can stand only once. Inconclusive results and toxic doses are left out. No stated cut-off is given here; in the data, active means T/C of 150% or more; inactive means T/C below 125%.

System: L1210 leukemia ip in BDF1 mice, survival T/C
Assay: NCI In Vivo Anticancer Drug Screen. Data for tumor model L1210 Leukemia (intraperitoneal) in B6D2F1 (BDF1) mice
Settings: endpoint: mean survival time, higher = longer survival
Outline: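 Mice bearing the transplanted tumor received compound or vehicle. Survival of the treated group was divided by that of the vehicle-treated control group to give the ratio.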

[1] = dose: 100.0 mg/kg/injection, schedule: Q01DX001 (ip), vehicle: saline
[2] = dose: 100.0 mg/kg/injection, schedule: Q01DX009 (ip), vehicle: saline
[3] = dose: 100.0 mg/kg/injection, schedule: Q04DX002 (ip), vehicle: saline
[4] = dose: 100.0 mg/kg/injection, schedule: Q04DX003 (ip), vehicle: saline
[5] = dose: 200.0 mg/kg/injection, schedule: Q01DX001 (ip), vehicle: saline
[6] = dose: 200.0 mg/kg/injection, schedule: Q01DX009 (ip), vehicle: saline
[7] = dose: 200.0 mg/kg/injection, schedule: Q04DX002 (ip), vehicle: saline
[8] = dose: 200.0 mg/kg/injection, schedule: Q04DX003 (ip), vehicle: saline
[9] = dose: 400.0 mg/kg/injection, schedule: Q01DX001 (ip), vehicle: saline
[10] = dose: 400.0 mg/kg/injection, schedule: Q01DX009 (ip), vehicle: saline
[11] = dose: 400.0 mg/kg/injection, schedule: Q04DX003 (ip), vehicle: saline
[12] = dose: 100.0 mg/kg/injection, schedule: Q04DX003 (ip), vehicle: Klucel (hydroxypropylcellulose) (HPC)
[13] = dose: 200.0 mg/kg/injection, schedule: Q04DX003 (ip), vehicle: Klucel (hydroxypropylcellulose) (HPC)
[14] = dose: 400.0 mg/kg/injection, schedule: Q04DX003 (ip), vehicle: Klucel (hydroxypropylcellulose) (HPC)
[15] = dose: 100.0 mg/kg/injection, schedule: Q01DX009 (ip), vehicle: Klucel (hydroxypropylcellulose) (HPC)
[16] = dose: 200.0 mg/kg/injection, schedule: Q01DX009 (ip), vehicle: Klucel (hydroxypropylcellulose) (HPC)
[17] = dose: 400.0 mg/kg/injection, schedule: Q01DX009 (ip), vehicle: Klucel (hydroxypropylcellulose) (HPC)
[18] = dose: 50.0 mg/kg/injection, schedule: Q01DX009 (ip), vehicle: saline
[19] = dose: 100.0 mg/kg/injection, schedule: Q01DX001 (ip), vehicle: saline with Tween-80
[20] = dose: 200.0 mg/kg/injection, schedule: Q01DX001 (ip), vehicle: saline with Tween-80
[21] = dose: 400.0 mg/kg/injection, schedule: Q01DX001 (ip), vehicle: saline with Tween-80
[22] = dose: 100.0 mg/kg/injection, schedule: Q04DX003 (ip), vehicle: saline with Tween-80
[23] = dose: 200.0 mg/kg/injection, schedule: Q04DX003 (ip), vehicle: saline with Tween-80
[24] = dose: 400.0 mg/kg/injection, schedule: Q04DX003 (ip), vehicle: saline with Tween-80
[25] = dose: 100.0 mg/kg/injection, schedule: Q01DX009 (ip), vehicle: saline with Tween-80
[26] = dose: 200.0 mg/kg/injection, schedule: Q01DX009 (ip), vehicle: saline with Tween-80
[27] = dose: 400.0 mg/kg/injection, schedule: Q01DX009 (ip), vehicle: saline with Tween-80
[28] = dose: 50.0 mg/kg/injection, schedule: Q01DX001 (ip), vehicle: saline

Measured: T/C

CCCC(NC(C)=O)C(=O)O (stereo not drawn)
inactive: [1] 94 % of control | [2] 94 % of control and 101 % of control | [3] 98 % of control and 111 % of control and 112 % of control | [4] 98 % of control | [5] 96 % of control | [6] 94 % of control and 90 % of control | [7] 108 % of control and 122 % of control and 123 % of control | [8] 96 % of control | [9] 93 % of control | [10] 99 % of control and 87 % of control | dose: 400.0 mg/kg/injection, schedule: Q04DX002 (ip), vehicle: saline 98 % of control and 111 % of control and 112 % of control | [11] 95 % of control

CCOC(=O)CNC(=O)N(CCCl)N=O
inactive: dose: 150.0 mg/kg/injection, schedule: Q01DX Z (ip), vehicle: carboxymethylcellulose (CMC) 102 % of control | dose: 250.0 mg/kg/injection, schedule: Q01DX Z (ip), vehicle: carboxymethylcellulose (CMC) 112 % of control

CCCCCCCCC/C(C)=N\NC(=O)c1ccccc1
inactive: [12] 105 % of control | [13] 92 % of control | [14] 97 % of control

COc1ccc(/C(=N\O)C(c2ccc(OC)cc2)C(Cl)(Cl)Cl)cc1 (stereo not drawn)
inactive: [15] 92 % of control | [16] 95 % of control | [17] 97 % of control

O=C(Nc1ccc2c(c1)OCO2)O/N=C1\C(=O)Nc2ccccc21
inactive: [18] 103 % of control | [2] 100 % of control

C=C(NC(C)=O)C(=O)OC
inactive: dose: 75.0 mg/kg/injection, schedule: Q04DX003 (ip), vehicle: saline 102 % of control | dose: 150.0 mg/kg/injection, schedule: Q04DX003 (ip), vehicle: saline 100 % of control | dose: 300.0 mg/kg/injection, schedule: Q04DX003 (ip), vehicle: saline 97 % of control

CCCCCCCCCCCCC(CCCCCCCCCCCC)C1CCCCC1
inactive: [1] 102 % of control | [5] 104 % of control | [9] 95 % of control

Nc1cc2ccccc2c2c1ccc1ccccc12
inactive: dose: 87.5 mg/kg/injection, schedule: Q04DX003 (ip), vehicle: Klucel (hydroxypropylcellulose) (HPC) 91 % of control | [12] 97 % of control | dose: 175.0 mg/kg/injection, schedule: Q04DX003 (ip), vehicle: Klucel (hydroxypropylcellulose) (HPC) 93 % of control | [13] 94 % of control | dose: 350.0 mg/kg/injection, schedule: Q04DX003 (ip), vehicle: Klucel (hydroxypropylcellulose) (HPC) 102 % of control

CCOC(=O)C(=NNc1cccc(Br)c1)C(=O)OCC
inactive: [1] 98 % of control | [5] 94 % of control | [9] 96 % of control

O=C(O)c1ccccc1C(=O)OC1=CS(=O)(=O)CC1
inactive: dose: 50.0 mg/kg/injection, schedule: Q01DX001 (ip), vehicle: saline with Tween-80 97 % of control | [19] 101 % of control and 104 % of control | [20] 95 % of control and 123 % of control | [21] 104 % of control and 105 % of control

CN(C)CC(=O)Nc1cc(Cl)ccc1Oc1ccc(Cl)cc1
inactive: [22] 94 % of control | [23] 100 % of control | [24] 100 % of control

CC(=O)C1(C)Nc2cccc3cccc(c23)N1
inactive: [25] 97 % of control | [26] 106 % of control | [27] 96 % of control

O=C1OC(=O)C2CC(Br)C(Br)CC12 (stereo not drawn)
inactive: [25] 92 % of control | [22] 94 % of control and 102 % of control | [26] 89 % of control | [23] 94 % of control | [27] 89 % of control | [24] 91 % of control and 93 % of control

NC(=O)C[n+]1ccccc1
inactive: [1] 106 % of control | [5] 98 % of control | [9] 97 % of control

Cc1cc(C)c(S(=O)(=O)C(=O)/C=N/N)c(C)c1
inactive: dose: 100.0 mg/kg/injection, schedule: Q01DX001 (ip), vehicle: Klucel (hydroxypropylcellulose) (HPC) 96 % of control | [12] 98 % of control | dose: 200.0 mg/kg/injection, schedule: Q01DX001 (ip), vehicle: Klucel (hydroxypropylcellulose) (HPC) 100 % of control | [16] 91 % of control | [13] 98 % of control | dose: 400.0 mg/kg/injection, schedule: Q01DX001 (ip), vehicle: Klucel (hydroxypropylcellulose) (HPC) 94 % of control | [17] 93 % of control | [14] 96 % of control

O=C(O)c1nnc(C(=O)O)nn1
inactive: [18] 96 % of control | [2] 102 % of control and 104 % of control | [4] 100 % of control | [6] 100 % of control and 101 % of control | [8] 103 % of control | [10] 96 % of control | [11] 94 % of control

NN(C(=O)c1ccccc1)c1ccccc1
inactive: dose: 75.0 mg/kg/injection, schedule: Q01DX001 (ip), vehicle: carboxymethylcellulose (CMC) 93 % of control | dose: 150.0 mg/kg/injection, schedule: Q01DX001 (ip), vehicle: carboxymethylcellulose (CMC) 98 % of control | dose: 300.0 mg/kg/injection, schedule: Q01DX001 (ip), vehicle: carboxymethylcellulose (CMC) 95 % of control

c1coc(-c2ncnc3c2Cc2ccccc2-3)c1
inactive: dose: 25.0 mg/kg/injection, schedule: Q01DX009 (ip), vehicle: Klucel (hydroxypropylcellulose) (HPC) 96 % of control | dose: 25.0 mg/kg/injection, schedule: Q04DX003 (ip), vehicle: Klucel (hydroxypropylcellulose) (HPC) 98 % of control | dose: 50.0 mg/kg/injection, schedule: Q01DX009 (ip), vehicle: Klucel (hydroxypropylcellulose) (HPC) 91 % of control | dose: 50.0 mg/kg/injection, schedule: Q04DX003 (ip), vehicle: Klucel (hydroxypropylcellulose) (HPC) 91 % of control | [15] 102 % of control | [12] 100 % of control

CC(O)(c1ccccc1)c1ccccc1
inactive: [28] 95 % of control | [1] 101 % of control | [22] 100 % of control | [5] 97 % of control | [23] 100 % of control | [9] 97 % of control | [24] 110 % of control

CCOC(=O)c1c2c3c(c(Br)cc(C)c3[nH]c1=O)C(=O)c1ccccc1-2
inactive: dose: 50.0 mg/kg/injection, schedule: Q01DX009 (ip), vehicle: saline with Tween-80 97 % of control | [25] 101 % of control | [26] 101 % of control

OCC1CCN1C(c1ccccc1)c1ccccc1 (stereo not drawn)
inactive: dose: 100.0 mg/kg/injection, schedule: Q04DX002 (ip), vehicle: saline with Tween-80 93 % of control | dose: 200.0 mg/kg/injection, schedule: Q04DX002 (ip), vehicle: saline with Tween-80 86 % of control

c1cc2c3c(c1)[I+]c1cccc(c1-3)[I+]2
inactive: [28] 112 % of control | [1] 116 % of control

O=C(O)CCCC(CC(=O)O)c1ccccc1 (stereo not drawn)
inactive: dose: 50.0 mg/kg/injection, schedule: Q04DX002 (ip), vehicle: saline 108 % of control | [3] 104 % of control | [7] 101 % of control

O=C1c2ccccc2-c2ccc(-c3ccc4c5c(cccc35)C(=O)c3ccccc3-4)c3cccc1c23
inactive: [12] 89 % of control | [13] 95 % of control | [14] 89 % of control

Cc1csc(=S)n1-c1ccc(Cl)cc1
inactive: [19] 107 % of control | [20] 100 % of control | [21] 98 % of control

CSc1ssc(=Nc2ccc(C)cc2)c1-c1ccccc1
inactive: [15] 95 % of control | [12] 88 % of control | [16] 93 % of control | [13] 91 % of control | [17] 93 % of control | [14] 89 % of control
